Source: patent publication US20240409935A1, “Atg8ylation coordinates stress granule formation and mTOR inactivation in response to lysosomal damage” (priority 2023, published 2024)
Residues, ends and D or L forms follow the SMILES beside them. *: point of attachment. βNA = c1ccc2cc(N*)ccc2c1

Key:
[1] = tested on: eIF2α (S51) phosphorylation; experiment: Immunoblot analysis of eIF2α (S51) phosphorylation in U2OS cells; assay type: cell-based, human
[2] = tested on: G3BP1 puncta (stress granules) in U2OS cells; experiment: HCM quantification of G3BP1 puncta (stress granule formation) in U2OS cells; assay type: cell-based, human; details: for SG formation response (G3BP1 puncta): agent alone for 30 min (2 mM LLOMe, 200 μM GPN, 400 μg/mL silica, 4 mM LOMe)
[3] = tested on: TFEB; experiment: TFEB nuclear translocation (HCM) and TFEB (S142) phosphorylation in Huh7 cells; assay type: cell-based, human; details: 530 nM AZD6244 for 2 h, 1 mM LLOMe for 30 min
Experimental: FIGS. 2SA-2SG show the cellular transcriptional response during lysosomal damage. FIG. 2SA RNAseq analysis of the change on gene expression in HEK293T cells in response to 1 mM LLOMe treatment for 30 min. […] The dotted line indicates the significance cut-off (P<0.05). […] Ctrl, control (untreated cells). […] Blue: nuclei, Hoechst 33342. Red: anti-TFEB antibody, Alexa Fluor 568. White masks, computer-algorithm-defined cell boundaries. Pink masks, computer-identified nuclear TFEB based on the average intensity of Alexa Fluor 568 fluorescence. […] Red masks, computer-identified G3BP1 puncta. […] Red masks, computer-identified G3BP1 puncta. Ctrl, control (untreated cells). Data, means±SEM; HCM: n≥3 (each experiment: 500 valid primary objects/cells per Well, ≥5 Well s/sample). **p<0.01, ANOVA.

[4] = tested on: ALIX puncta in U2OS cells; experiment: HCM quantification of ALIX puncta in U2OS cells; assay type: cell-based, human; details: 15 μM BAPTA-AM for 1 h, then 2 mM LLOMe for 30 min
Experimental: Cells Were treated with 2 mM LLOMe for 30 min. White masks, algorithm-defined cell boundaries; red masks, computer-identified G3BP1 puncta. […] Cells Were treated with 2 mM LLOMe for 30 min. White masks, algorithm-defined cell boundaries; green masks, computer-identified ALIX puncta. NT, untreated cells. Data, means±SEM (n=3); HCM: n≥3 (each experiment: 500 valid primary objects/cells per Well, ≥5 Well s/sample). †p≥0.05 (not significant), **p<0.01, ANOVA. See also FIG. 11.

[5] = tested on: G3BP1 puncta in THP-1 cells; experiment: Stress granule formation in THP-1 cells; assay type: cell-based, human
Experimental: (§1) FIGS. 12SA-12SF. Stress granules are important for cell survival in response to lysosomal damage in disease states. […] White masks, algorithm-defined cell boundaries; red masks, computer-identified LTR puncta. […] White masks, algorithm-defined cell boundaries; green masks, computer-identified ALIX puncta. […] White masks, algorithm-defined cell boundaries; red masks, computer-identified G3BP1 puncta. […] Cells Were treated with 200 μg/mL silica for 4 h in the presence or absence of 100 nM ISRIB, and then stained with propidium iodide PI (dead cells) and Hoechst-33342 (total cells). White masks, algorithm-defined cell boundaries; red masks, computer-identified PI^+ nuclei. […]
How does SG formation affect cell fate during lysosomal damage? […] The inventors quantified the number of SGs using the canonical SG marker polyA RNA (Ivanov et al., 2019) via high-content microscopy (HCM) (FIG. S1B) and verified the depletion of SG formation in ΔΔG3BP1/2 cells when exposed to the lysosome-specific damaging agent L-leucyl-L-leucine methyl ester (LLOMe) (Jia et al., 2022; Tan et al., 2022; Thiele et al., 1990) (FIG. 7SB). A propidium iodide (PI) uptake assay measuring plasma membrane integrity (Crowley et al., 2016; Liu et al., 2023) was adapted to quantify cell survival during lysosomal damage using HCM. […]

[6] = tested on: human peripheral blood monocyte-derived macrophages (hMDM); experiment: PI uptake cell death assay (HCM) in hMDM; assay type: cell-based
Experimental: Cells Were treated with 2 mM LLOMe for 30 min, and then stained with propidium iodide (PI) (dead cells) and Hoechst-33342 (total cells). White masks, algorithm-defined cell boundaries (primary objects); red masks, computer-identified PI^+ nuclei (target objects). […] Cells Were treated with 2 mM LLOMe for 30 min. […] Cells Were treated with 2 mM in the presence or absence of 10 μg/ml cycloheximide (CHX) for 30 min, and then stained with PI (dead cells) and Hoechst-33342 (total cells). […] Scale bar, 10 μm. […] Cells Were treated with 2 mM LLOMe with or without CHX for 30 min, and then stained using Live/Dead™ stain kit (ThermoFisher). […] Cells Were treated with 2 mM LLOMe for 30 min, and then stained with PI (dead cells), Hoechst-33342 (total cells) or eIF4G. (i) HCM images: white masks, algorithm-defined cell boundaries; green masks, computer-identified eIF4G puncta; red masks, computer-identified PI^+ nuclei (target objects); (ii and iii) corresponding HCM quantification. […] Cells Were treated with 2 mM LLOMe for 30 min. […] CTR, control; NT, untreated cells. Data, means±SEM (n=3); HCM: n≥3 (each experiment: 500 valid primary objects/cells per Well, ≥5 Well s/sample). †p≥0.05 (not significant), *p<0.05, **p<0.01, ANOVA. See also FIG. 7S.
as §1

[7] = tested on: THP-1 cells; experiment: Cell survival of THP-1 cells; assay type: cell-based
[8] = tested on: ATF4; experiment: ATF4 expression in THP-1 cells; assay type: cell-based, human
[9] = tested on: NUFIP2, G3BP1 and TIA1 on lysosomes; assay type: cell-based, human
[10] = tested on: mTOR; experiment: mTOR/mTORC1 activity by phosphorylation of its substrates (4EBP1 S65, ULK1 S757, S6K1 T389) in U2OS cells; assay type: cell-based, human
[11] = tested on: Galectin-3 puncta in BMM cells; assay type: cell-based, murine
[12] = tested on: U2OS cells; experiment: LDH release assay in U2OS cells; assay type: cell-based, human; details: LLOMe plus cycloheximide
Source text: How does SG formation affect cell fate during lysosomal damage? The inventors utilized SG deficient U2OS cells (human osteosarcoma epithelial cell line) genetically lacking both G3BP1 and G3BP2 (ΔΔG3BP1/2) (Nancy Kedersha et al., 2016), which are essential factors for SG formation (Guillén-Boixet et al., 2020; Nancy Kedersha et al., 2016; P. Yang et al., 2020) (FIG. 7SA). The inventors quantified the number of SGs using the canonical SG marker polyA RNA (Ivanov et al., 2019) via high-content microscopy (HCM) (FIG. S1B) and verified the depletion of SG formation in ΔΔG3BP1/2 cells when exposed to the lysosome-specific damaging agent L-leucyl-L-leucine methyl ester (LLOMe) (Jia et al., 2022; Tan et al., 2022; Thiele et al., 1990) (FIG. 7SB). A propidium iodide (PI) uptake assay measuring plasma membrane integrity (Crowley et al., 2016; Liu et al., 2023) was adapted to quantify cell survival during lysosomal damage using HCM. […] This was additionally confirmed by using a lactate dehydrogenase (LDH) release assay measuring non-specific leak from cells (Chan et al., 2013; Kumar et al., 2018) (FIG. 1B). […] Elevated cell death, as quantified by PI uptake assay (FIG. 1F (i, iii)) and the LDH release assay (FIG. 1G), was detected in G3BP1/2^DKD in response to LLOMe treatment. […]

[13] = tested on: human peripheral blood monocyte-derived macrophages (hMDM); details: 1 μg/ml cycloheximide
[14] = tested on: human peripheral blood monocyte-derived macrophages (hMDM); details: hemozoin (10.0 mg/mL) 4 h, 1 μg/ml cycloheximide
[15] = tested on: PKR; experiment: LysoIP immunoblotting of PKR and eIF2α phosphorylation on damaged lysosomes from HEK293T cells; assay type: cell-based, human; details: 1 mM LLOMe with 210 nM imidazolo-oxindole C16 for 1 h

## Nc1ncc2[nH]cnc2n1 [2-AP, 2-aminopurine]
[1]; U2OS cells, 2-AP for 1 h followed by 2 mM LLOMe for 30 min
  eIF2α phosphorylation in cells treated with LLOMe, with PKR inhibitor: inhibited eIF2α phosphorylation
[2]; 2-AP for 1 h followed by 2 mM LLOMe for 30 min
  SG formation in response to LLOMe treatment, with 2-AP: inhibited, in a dose-response fashion, SG formation

## Cn1cnc2c(F)c(Nc3ccc(Br)cc3Cl)c(C(=O)NOCCO)cc21 [AZD6244]
[3]
  nuclear translocation of TFEB and dephosphorylation at Ser142: lysosomal damage compared with AZD6244: equal in magnitude

## CC(=O)OCOC(=O)CN(CC(=O)OCOC(C)=O)c1ccccc1OCCOc1ccccc1N(CC(=O)OCOC(C)=O)CC(=O)OCOC(C)=O [BAPTA-AM]
[1]; U2OS cells, 15 μM BAPTA-AM for 1 h, then 2 mM LLOMe for 30 min
  eIF2α phosphorylation during lysosomal damage, with BAPTA-AM: significant reduction
[2]; 15 μM BAPTA-AM for 1 h, then 2 mM LLOMe for 30 min
  SG formation during lysosomal damage, with BAPTA-AM: significant reduction in SG formation
[4]
  ALIX puncta formation upon lysosomal damage, with BAPTA-AM: decrease in ALIX puncta formation

## NCC(=O)N[C@@H](Cc1ccccc1)C(=O)Nc1ccc2ccccc2c1 [GPN, glycyl-L-phenylalanine-2-naphthyl amide] (H-Gly-Phe-βNA)
[2]
  SG formation response (G3BP1 puncta): strong SG formation response

## O=C(COc1ccc(Cl)cc1)N[C@H]1CC[C@@H](NC(=O)COc2ccc(Cl)cc2)CC1 [ISRIB, N,N′-((1s,4s)-cyclohexane-1,4-diyl)bis(2-(4-chlorophenoxy)acetamide)]
[5]
  SG formation upon lysosomal damage, with ISRIB: prevented SG formation
[6]; 10 μg/mL tau oligomer for 4 h, 100 nM ISRIB
  cell death by PI uptake assay during tau oligomer treatment, with ISRIB: comparable effect on cell death
[6]; 200 μg/mL silica for 4 h, 100 nM ISRIB
  cell death by PI uptake assay during silica treatment, with ISRIB: comparable effect on cell death
[7]
  cell survival upon lysosomal damage, with ISRIB: decrease in cell survival
[8]
  ATF4 expression levels upon lysosomal damage, with ISRIB: reduction in ATF4 expression levels

## COC(=O)[C@@H](N)CC(C)C [LOMe]
[2]
  SG formation response (G3BP1 puncta): did not induce SG formation

## O=[As][O-].[Na+] [arsenite, NaAsO2]
[9]
  enrichment of NUFIP2, G3BP1 and TIA1 on purified lysosomes: not on lysosomes purified from cells treated with arsenite
[1]
  eIF2α phosphorylation under arsenic stress: led to eIF2α phosphorylation
[10]
  mTORC1 activity under arsenic stress: activating mTORC1 activity
[11]
  lysosomal damage monitored by Galectin-3 response: did not induce lysosomal damage

## C[C@@H]1C[C@@H]([C@H](O)CC2CC(=O)NC(=O)C2)C(=O)[C@@H](C)C1 [cycloheximide]
[6]; 2 mM LLOMe with 10 μg/ml cycloheximide for 30 min
  cell death by PI uptake assay during LLOMe treatment, with cycloheximide: significant increase in cell death
[12]
  cell survival by LDH release, with cycloheximide during lysosomal damage: increased LDH release
[2]
  SG formation (G3BP1 puncta) following LLOMe treatment, with cycloheximide: inhibited SG formation
[13]; 10 μg/mL tau oligomer for 4 h
  cell death (AMNIS, Live/Dead) during tau oligomer treatment, with cycloheximide: augmented cell death
[13]; 200 μg/mL silica for 4 h
  cell death (AMNIS, Live/Dead) during silica treatment, with cycloheximide: augmented cell death
[14]
  cell death by LDH release assay in response to hemozoin, with cycloheximide: increased cell death

## O=C1Nc2ccc3ncsc3c2/C1=C/c1cnc[nH]1 [imidazolo-oxindole C16]
[15]
  phosphorylation of both PKR and eIF2α on damaged lysosomes, with C16: effectively blocked
[2]; 210 nM imidazolo-oxindole C16 for 2 h followed by 2 mM LLOMe for 30 min
  SG formation during lysosomal damage, with C16: reduced SG formation
